In patent US20150140125A1, “SYNERGISTIC CANCER THERAPY DRUG COMBINATIONS” (Life Plus, LLC, priority 2013, published 2015):
“Also recorded” adds a separate entry of the source.

How the values were obtained:
Format in all cases: cell-based
[1] = system: human ovarian cancer cell line (A1847); assay: 3-D ovarian cancer cell cluster viability (Prestoblue fluorescence); settings: for doses giving a statistically significant decrease in live cells: agent alone; for dose that had to be reached before the agent alone had an effect: ovarian cancer spheroids
Experimental: (§1) 96-well cell culture plates were loaded with increasing doses of GZ17 (graph on left) within a row. The doses were each added to 8 rows of each plate for 8 replicates at each dose. Cell clusters were pipetted into each well, and exposed for 24 hours to GZ17. At the completion of 24 hours, the wells were treated with 20 microliters of Prestoblue and allowed to incubate for up to 4 hours. The plates were read at 2-4 different time points after exposure to Prestoblue ranging from 30 minutes to 4 hours. The one-hour time point was the most often used and reported. The plates were loaded into a Perkin Elmer Enspire plate reader and each well was excited at 490 nm and read at 560 nm wavelengths. Relative fluorescence for each well was read.
The human ovarian cancer cell line (A1847) was used to create miniature tumors by loading the individual cells in a micromold according to U.S. Pat. App. Pub. […] Cells were pipetted into the mold and allowed 2-3 days to form 3-D clusters, mimicking miniature tumors. Cell clusters were removed from the mold by washing and gentle pipetting. Cell clusters were placed in media containing 0.5% FBS. The clusters were dispensed into 96-well plates at a density of approximately 10-15 clusters per well. […]
(§2) The powder was reconstituted in deionized water and agitated to ensure substantial homogeneity.

[2] = system: human alveolar adenocarcinoma cell line (H358)
Description: Pub. […] Cells were pipetted into the mold and allowed 3-5 days to form 3-D clusters, mimicking miniature tumors. The cell clusters were removed from the mold by washing and gentle pipetting. The cell clusters were placed in media containing 0.5% FBS. The clusters were dispensed into 96-well plates at a density of approximately 12-15 clusters per well for testing with the therapeutic composition designated herein as “GZ17” and a known chemotherapeutic agent (doxorubicin, aka adriamycin).
The cell clusters were tested against GZ17 and doxorubicin individually at various dosages, and then against the combination therapeutic containing both agents.
as §1
The chemotherapy classification of paclitaxel (also known as taxol) is a mitotic inhibitor. It works by stabilizing the microtubules. The microtubules are part of the cytoskeleton of the cell. When the cells go into cell division, the microtubules must disassemble so that the cell can divide. However, with paclitaxel, the microtubule polymer can't disassemble, and thus the cells can't divide which triggers apoptosis, or programmed cell death. There are subcategories of drugs in the mitotic inhibitor class including the vinca alkaloids (vincristine and vinblastine) and the colchicines class, podophyllotoxin and griseofulvin. Other drugs that work like paclitaxel are the taxanes and docotaxel.
The study was again repeating using fluorouracil. Fluorouracil is an anti-metabolite chemotherapy. It mimics pyrimidine and incorporates into the DNA and RNA blocking the ability of the cell to divide, and eventually ending in death of the cancer cells. Other drugs in this category include cytarabine and 6-azauracil.
as §2

[3] = system: human ovarian cancer cell line (A1847); assay: 3-D ovarian cancer cell cluster viability (Prestoblue fluorescence); settings: paclitaxel alone at 3.16 μM

N.N.[Cl][Pt][Cl] [cisplatin]
doses giving a statistically significant decrease in live cells [1]: ≥ 31.6 µM
dose that had to be reached before the agent alone had an effect [1]: ≥ 10 µM

O=C(O)CCCc1ccc(N(CCCl)CCCl)cc1 [chlorambucil]
effect of the agent alone on lung cancer spheroids ([2]; agent alone): no effect
effect of the agent alone on ovarian cancer clusters [1]: no effect on its own

O=c1[nH]cc(F)c(=O)[nH]1 [fluorouracil]
doses giving a significant decrease in cell numbers ([2]; agent alone): ≥ 1.58 µM
dose that had to be reached before the agent alone had more than little effect ([2]; agent alone, lung cancer spheroids): ≥ 1.58 µM
effect of the agent alone on ovarian cancer clusters [1]: the dose response was minimal
dose that had to be reached before the agent alone had an effect [1]: ≥ 3.16 µM

CC(=O)O[C@H]1C(=O)[C@@]2(C)[C@H]([C@H](OC(=O)c3ccccc3)[C@]3(O)C[C@H](OC(=O)[C@H](O)[C@@H](NC(=O)c4ccccc4)c4ccccc4)C(C)=C1C3(C)C)[C@]1(OC(C)=O)CO[C@@H]1C[C@@H]2O [paclitaxel]
effect on cancer cell death [3]: no effect on cancer cell death
dose at which the number of live cells is reduced (other doses not significant) ([2]; paclitaxel alone): 5 µM
doses giving a statistically significant decrease in live cells [1]: 0.01 µM
dose that had to be reached before the agent alone had an effect [1]: ≥ 31.6 µM

CN(Cc1cnc2nc(N)nc(N)c2n1)c1ccc(C(=O)N[C@@H](CCC(=O)O)C(=O)O)cc1 [methotrexate]
effect of the agent alone on lung cancer spheroids ([2]; agent alone): no effect alone

COc1cccc2c1C(=O)c1c(O)c3c(c(O)c1C2=O)C[C@@](O)(C(=O)CO)C[C@@H]3O[C@H]1C[C@H](N)[C@H](O)[C@H](C)O1 [doxorubicin]
relative fluorescence (live cells) with increasing dose ([2]; agent alone, 24 h exposure): fluorescence declined
percent of the cancer cells caused to die ([2]; doxorubicin alone, 1.58 μM, 24 h): 36%
reduction in the number of cells from the baseline ([2]; doxorubicin alone, 0.002 to 0.158 μM): no statistically significant reduction; also recorded: had no effect
doses giving a statistically significant decrease in live cells [1]: ≥ 0.5 µM
